Reference: patent US9802897B2, “Amidopyridinol derivative or pharmaceutically acceptable salt thereof and pharmaceutical composition comprising same as active component” (Research Cooperation Foundation of Yeungnam University, priority 2013, dated 2017)
Non-standard residues stand in square brackets, D forms with d. Residues, ends and D or L forms follow the SMILES beside them. *: point of attachment. Sta = CC(C)C[C@H](N)[C@@H](O)CC(=O)O; Isovaleryl = CC(C)CC(=O)*; Cbz = O=C(OCc1ccccc1)*; CH2F = FC*

Key:
HT-29 cells / U937 cells = test: TNF-α-induced adhesion of HT-29 intestinal epithelial cells and U937 mononuclear cells; format: cell-based, human; settings: 1 μM, pre-treated 1 hour, TNF-α 10 ng/ml; for inhibition at 1 µM: Homo sapiens, read-out: Inhibitory rates (%)
Experimental: HT-29 cells were cultured in a 24-well plate at a concentration of […] cells/cm^2, and meanwhile, amidopyridinol compounds 8a to 8z were pre-treated for 1 hour at each concentration in a serum-free medium supplemented only with 1% PS. Next, 10 ng/ml of TNF-α was treated therewith to allow a reaction at a temperature of 37° C. for 3 hours. After the completion of the reaction, the medium of the HT-29 cells was removed, and then, the HT-29 cells were washed with PBS once. Afterwards, U937 cells, which were treated and reacted with 10 μg/mL of BCECF-AM at a temperature of 37° C. for 30 minutes, were allowed to react with the HT-29 cells at temperature of 37° C. for 1 hour. Then, to remove U937 cells that were not adhered to the HT-29 cells, the reacted cells were washed with PBS twice. In terms of cell dissolution, 0.1% Triton X-100 in 0.1M Tris was allowed to react with the cells for 30 minutes at room temperature, and then, the cells were subjected to quantify by measuring fluorescence thereof using the Fluostar optima microplate reader (BMG Labtechnologies, Germany).

MDA-MB-231 cells = test: Transwell invasion assay of MDA-MB-231 breast cancer cells; format: cell-based; settings: for invasion of MDA-MB-231 cells (in words): cathepsin inhibitors vs cells not treated with inhibitors
Experimental: The invasion assay was performed by using the transwell insert (BD FALCON, Bedford, USA) equipped with a 8 μm pore-sized filter. An upper part of the transwell insert filter was coated with 20 μl of matrigel (1 mg/ml) while a bottom part of the same was coated with 30 μl of type I collagen (0.5 mg/ml). The MDA-MB-231 cells (5×10^5 cells/100 μl) were added to the insert chamber, and then, each inhibitor was also added thereto. To induce invasion of the cells, a medium supplemented with 5% FBS was added to each well of the bottom chamber to allow a reaction at a temperature of 37° C. in a cell incubator. 18 hours later, the cells remained after removing the solution in the insert chamber were removed by using a cotton swab, whereas cells at the bottom of the membrane were fixed with methanol and stained with hematoxylin and eosin. The cells present at the membrane were observed through a microscope, and the number of the cells was counted in the selected 5 fields at the resolution of 200×.
According to the same manner as in Experimental Example 7, inhibitory effects of the amidopyridinol derivatives synthesized in Examples above on invasion of breast cancer cells, e.g., MDA-MB-231, were reviewed. Here, to compare with, inhibitory effects of aminopyridinol derivatives, e.g., 6-amino-2,4,5-trimethylpyridine-3-ol (BJ-1101) and 6-diphenylamino-2,4,5-trimethylpyridine-3-ol (BJ-1201), on invasion of breast cancer cells, e.g., MDA-MB-231, were reviewed.

[1] = 1 μM, MDA-MB-231 invasion, 5% FBS, 18 hours

SMILES: Cc1nc(NC(=O)CC(C)CC(C)(C)C)c(C)c(C)c1O (stereo not shown) [Compound 8w, N-(5-hydroxy-3,4,6-trimethylpyridine-2-yl)-3,5,5-trimethylhexanamide]
- inhibition at 1 µM (HT-29 cells / U937 cells): 54.5%

SMILES: CC(C)CC(=O)N[C@H](C(=O)N[C@H](C(=O)N[C@@H](CC(C)C)[C@@H](O)CC(=O)N[C@@H](C)C(=O)N[C@@H](CC(C)C)[C@@H](O)CC(=O)O)C(C)C)C(C)C [Pepstatin A] (Isovaleryl-VV[Sta]A[Sta]-OH)
- Inhibition rates (%) (MDA-MB-231 cells; [1]): 3.42 ± 0.42%
- Inhibition rates (%) (MDA-MB-231 cells; 5 μM, MDA-MB-231 invasion, 5% FBS, 18 hours): 4.04 ± 0.33%
- Inhibition rates (%) (MDA-MB-231 cells; 25 μM, MDA-MB-231 invasion, 5% FBS, 18 hours): 5.54 ± 0.77%

SMILES: Cc1nc(NC(=O)C=Cc2ccccc2)c(C)c(C)c1O [Compound 8z, N-(5-hydroxy-3,4,6-trimethylpyridine-2-yl)cinnamide]
- Inhibitory rates (%) (HT-29 cells / U937 cells): 25.2%

SMILES: Cc1nc(NC(=O)c2cccc(O)c2)c(C)c(C)c1O [Compound 8v, 3-hydroxy-N-(5-hydroxy-3,4,6-trimethylpyridine-2-yl)benzamide]
- inhibition at 1 µM (HT-29 cells / U937 cells): 54.1%

SMILES: CC(C)(F)C[C@H](N[C@@H](c1ccc(-c2ccc(S(C)(=O)=O)cc2)cc1)C(F)(F)F)C(=O)NC1(C#N)CC1 [Odanacatib]
- inhibition at 0.04 µM (MDA-MB-231 cells; Homo sapiens, 0.04 μM, MDA-MB-231 invasion, 5% FBS, 18 hours, read-out: Inhibition rates (%)): 14.9 ± 4.14%
- inhibition at 0.2 µM (MDA-MB-231 cells; Homo sapiens, 0.2 μM, MDA-MB-231 invasion, 5% FBS, 18 hours, read-out: Inhibition rates (%)): 19.9 ± 3.77%
- inhibition at 1 µM (MDA-MB-231 cells; Homo sapiens, 1 μM, MDA-MB-231 invasion, 5% FBS, 18 hours, read-out: Inhibition rates (%)): 22.3 ± 3.7%

SMILES: Cc1nc(NC(=O)Cc2ccc(Cl)cc2)c(C)c(C)c1O [Compound 8x, 2-(4-chlorophenyl)-N-(5-hydroxy-3,4,6-trimethylpyridine-2-yl)acetamide]
- inhibition at 1 µM (HT-29 cells / U937 cells): 41.5%

SMILES: CCCNC(=O)[C@H]1O[C@@H]1C(=O)N[C@H](C(=O)N1CCC[C@H]1C(=O)OC)[C@@H](C)CC [CA-074 Me]
- Inhibition rates (%) (MDA-MB-231 cells; 1 nM, MDA-MB-231 invasion, 5% FBS, 18 hours): 19.73 ± 2.31 %
- Inhibition rates (%) (MDA-MB-231 cells; 5 nM, MDA-MB-231 invasion, 5% FBS, 18 hours): 34.26 ± 2.30 %
- Inhibition rates (%) (MDA-MB-231 cells; 25 nM, MDA-MB-231 invasion, 5% FBS, 18 hours): 44.45 ± 1.43 %
- invasion of MDA-MB-231 cells (in words) (MDA-MB-231 cells): decreased invasion of the cells

SMILES: Cc1nc(NC(=O)C(Cl)Cl)c(C)c(C)c1O [Compound 8y, 2,2-dichloro-N-(5-hydroxy-3,4,6-trimethylpyridine-2-yl)acetamide]
- inhibition at 1 µM (HT-29 cells / U937 cells): 60.6%

SMILES: O=C(NC(Cc1ccccc1)C(=O)NC(Cc1ccccc1)C(=O)CF)OCc1ccccc1 (stereo not drawn) [Z-FF-FMK] (Cbz-Phe-Phe-CH2F; configuration not given here)
- Inhibition rates (%) (MDA-MB-231 cells; 0.04 μM, MDA-MB-231 invasion, 5% FBS, 18 hours): 3.42 ± 2.08%
- Inhibition rates (%) (MDA-MB-231 cells; 0.2 μM, MDA-MB-231 invasion, 5% FBS, 18 hours): 6.97 ± 2.35%
- Inhibition rates (%) (MDA-MB-231 cells; [1]): 10.16 ± 2.16 %

SMILES: CC(C)C[C@H](NC(=O)[C@H](Cc1ccccc1)NC(=O)OCc1ccccc1)C(=O)C=O [Z-FL-COCHO]
- Inhibition rates (%) (MDA-MB-231 cells; 0.4 nM, MDA-MB-231 invasion, 5% FBS, 18 hours): 34.36 ± 3.00 %
- Inhibition rates (%) (MDA-MB-231 cells; 2 nM, MDA-MB-231 invasion, 5% FBS, 18 hours): 44.67 ± 2.61 %
- Inhibition rates (%) (MDA-MB-231 cells; 10 nM, MDA-MB-231 invasion, 5% FBS, 18 hours): 50.12 ± 2.76 %
- invasion of MDA-MB-231 cells (in words) (MDA-MB-231 cells): decreased invasion of the cells
